# Reference: patent publication US6737425B1, “N,N-substituted cyclic amine derivatives” (Eisai Co., Ltd., priority 1998, dated 2004)
# Counter-ions that a name gives are not always drawn.
# Tests used:
# [1] = tested on: voltage-dependent calcium channels (cerebral cortex synaptosome); assay: Measurement of voltage-dependent calcium channel activity by the use of a fluorescent pigment (fura 2); type: cell-based; conditions: rat cerebral cortex synaptosome, fura 2, KCl stimulation, compound incubated 10 minutes
# Experimental: Measurement of Voltage-dependent Calcium Channel Activity by the use of a Fluorescent Pigment (fura 2)
# Cerebral cortexes were removed from cut rat brains and disrupted roughly with scissors. These were introduced into a homogenizer, homogenized in 0.3 M saccharose and centrifuged at 4° C. (1,500 g×10 min). The resulting supernatant was further centrifuged at 4° C. (10,000 g×20 min). The resulting precipitates were suspended in 0.3 M saccharose. The suspension was layered on 0.8 M saccharose and centrifuged (10,000 g×30 min.).
# 4 μM fura 2/AM (Dojin Ltd.) was suspended in solution A to prepare a loading solution. To the synaptosome solution prepared in the method described above was added an equal volume of the loading solution, and the mixture was incubated for 40 minutes at room temperature.
# As comparative and control compound, verapamil hydrochloride was used.
# [2] = tested on: glutamic acid release from rat cerebral cortex slices; assay: Inhibitory activity on glutamic acid release (cerebral cortex slices, high-conc. KCl); type: cell-based; conditions: glutamic acid release induced with 50 mM KCl, HPLC
# Experimental: Inhibitory Activity on Glutamic Acid Release
# Cerebral cortexes were isolated from SD strain male rats (8-week-old) and used to prepare 300 μm×300 μm slices by use of a slice chopper. The prepared slices were incubated at 37° C. for 30 minutes in solution C (120 mM NaCl, 4 mM KCl, 10 mM MgSO4, 16 mM NaHCO3, 10 mM glucose, 1 mM NaH2PO4, 10 mM HEPES-NaOH pH 7.4) in the presence of 95% O2/5% CO2. Thereafter, solution C was exchanged with fresh one, followed by further incubation for 30 minutes.
# The cerebral cortex slices were incubated in a 24-wells plate for cell culture according to a multi-well method (Brain Res., 402, 255-263, 1987), and the release of glutamic acid was induced with 50 mM KCl. Solution D (120 mM NaCl, 4 mM KCl, 1.2 mM CaCl2, 1 mM MgSO4, 16 mM NaHCO3, 10 mM glucose, 1 mM NaH2PO4, 10 mM HEPES-NaOH pH 7.4) was aerated with 95% O2/5% CO2 and kept at 37° C. and used in this experiment. 50 mM KCl containing the same total amount of K^+ and Na^+ was prepared. Slices corresponding to 1 to 2 mg protein were placed on an upper cup provided with a mesh at the bottom, and 1.3 ml solution C or 50 mM KCl solution was introduced into a lower well, and the upper cup was transferred to a new well. 20 minutes before and 5 minutes after reaction was intiated, the test compound was added to solution D or 50 mM KCl.
# Glutamic acid was quantified by HPLC using fluorescent etor (Ex. 330 nm Em. […]). The eluting solvent used was prepared by diluting 150 ml sodium citrate buffer for automatic amino acid analysis (Wako Pure Chemical Industries) 10-fold with distilled water, then adding MgCl2 thereto at the final concentration of 50 mM, and further diluting it twice with acetonitrile. The flow rate was 2.0 ml/min. The column used was Asahipak (ES-502N Denko, K. K.). The glutamic acid was converted into a derivative by addition, to 50 μl sample, of 50 μl deriving agent (10 mg o-phthalaldehyde/500 μl MeOH, 10 μl b-mercaptopropionic acid, 0.15 M sodium borate buffer pH 9.5, 100 μl) followed by stirring (Neuroscience Lett., 96, 202-206, 1989).
IC50 ([2]; Rattus norvegicus) [µM],IC50 [1] [µM],Compound,IC50 ([1]; Hydrochloride) [µM],IC50 ([2]; Hydrochloride) [µM]
–,–,"CC(C)C(C#N)(CCCN1CCN(CCOc2ccc(F)cc2)CC1)c1ccccc1 (single isomer, unassigned; (+)) [Example 76, (+)-1-[(4-Cyano-5-methyl-4-phenyl)hexyl]-4-[2-(4-fluorophenoxyl)ethyl]piperazine Hydrochloride]",5.8,3.9
5.9,–,"N#CC(CCCN1CCN(CCOc2ccc(F)cc2)CC1)(c1ccccc1)C1CCCCC1 (single isomer, unassigned; (-)) [Example 79, (−)-1-[(4-Cyano-4-cyclohexyl-4-phenyl)butyl]-4-[2-(4-fluorophenoxyl)ethyl]piperazine Hydrochloride]",3.3,–
2.4,3.5,"Cc1ccc(C(C#N)(CCCN2CCN(CCOc3ccc(F)cc3)CC2)C(C)C)cc1 (centres unmarked) [Example 9, 1-[4-Cyano-5-methyl-4-(4-methylphenyl)hexyl]-4-[2-(4-fluorophenoxy)ethyl]piperazine]",–,–
2,3.2,"CC(C)C(C#N)(CCCN1CCN(CCOc2ccc(F)cc2)CC1)c1ccc(Cl)cc1 (centres unmarked) [Example 10, 1-[4-Cyano-5-methyl-4-(4-chlorophenyl)hexyl]-4-[2-(4-fluorophenoxy)ethyl]piperazine]",–,–
3.8,4.8,"COc1ccc(C(C#N)(CCCN2CCN(CCOc3ccc(F)cc3)CC2)C(C)C)cc1 (centres unmarked) [Example 11, 1-[4-Cyano-5-methyl-4-(4-methoxyphenyl)hexyl]-4-[2-(4-fluorophenoxy)ethyl]piperazine]",–,–
1.9,5.5,"CC(C)C(C#N)(CCCN1CCN(CCOc2ccc(F)cc2)CC1)c1cccs1 (centres unmarked) [Example 20, 1-{[4-Cyano-5-methyl-4-(2-thienyl)hexyl]}-4-[2-(4-fluorophenoxy)ethyl]piperazine]",–,–
4.1,5.4,"CC(C)C(C#N)(CCCN1CCN(CCOc2ccc(F)cc2)CC1)c1ccccc1F (centres unmarked) [Example 22, 1-{[4-Cyano-5-methyl-4-(2-fluorophenyl)hexyl]}-4-[2-(4-fluorophenoxy)ethyl]piperazine]",–,–
2.5,4.3,"CC(C)C(C#N)(CCCN1CCN(CCOc2ccc(F)cc2)CC1)c1cccc(F)c1 (centres unmarked) [Example 23, 1-[{4-Cyano-5-methyl-4-(3-flourophenyl)hexyl]}-4-[2-(4-fluorophenoxy)ethyl]piperazine]",–,–
2.4,3.9,"CC(C)C(C#N)(CCCN1CCN(CCOc2ccc(F)cc2)CC1)c1ccc(F)cc1 (centres unmarked) [Example 24, 1-{[4-Cyano-5-methyl-4-(4-fluorophenyl)hexyl]}-4-[2-(4-fluorophenoxy)ethyl]piperazine]",–,–
4.2,3.4,"CC(C)C(C#N)(CCCN1CCN(CCOc2ccc(Cl)cc2)CC1)c1ccccc1 (centres unmarked) [Example 36, 1-[(4-Cyano-5-methyl-4-phenyl)hexyl]-4-[2-(4-chlorophenoxy)ethyl]piperazine]",–,–
2.9,3.8,"CC(C)C(C#N)(CCCN1CCN(CCN(C)c2ccc(F)cc2)CC1)c1ccccc1 (centres unmarked) [Example 52, 1-[(4-Cyano-5-methyl-4-phenyl)hexyl]-4-{2-[N-(4-fluorophenyl)-N-methylamino]ethyl}piperazine]",–,–
–,> 16,"CC(C)C(C#N)(CCCN1CCN(CCOc2ncccn2)CC1)c1ccccc1 (centres unmarked) [Example 112, 1-[(4-Cyano-5-methyl-4-phenyl)hexyl]-4-[2-(2-pyrimidinyloxy)ethyl]piperazine]",–,–
–,4.5,"CC(C)C(C#N)(CCCN1CCN(CCOc2ccccc2-c2cccnc2)CC1)c1ccccc1 (centres unmarked) [Example 113, 1-[(4-Cyano-5-methyl-4-phenyl)hexyl]-4-{2-[2-(3-pyridyl)phenoxy]ethyl}piperazine]",–,–
–,6.8,"CC(C)C(C#N)(CCCN1CCN(CCOc2ccc(F)cc2)CC1)c1ccc(C#N)s1 (centres unmarked) [Example 114, 1-[4-Cyano-5-methyl-4-(2-cyano-5-thienyl)hexyl]-4-[2-(4-fluorophenoxy)ethyl]piperazine]",–,–
–,5.8,"CC(C)C(C#N)(CCCN1CCN(CCOc2cccc(F)c2)CC1)c1ccc(C#N)s1 (centres unmarked) [Example 115, 1-[4-Cyano-5-methyl-4-(2-cyano-5-thienyl)hexyl]-4-[2-(3-fluorophenoxy)ethyl]piperazine]",–,–
–,5.5,"CC(C)C(C#N)(CCCN1CCN(CCOc2cccc(F)c2)CC1)c1cccs1 (centres unmarked) [Example 116, 1-[4-Cyano-5-methyl-4-(2-thienyl)hexyl]-4-[2-(3-fluorophenoxy)ethyl]piperazine]",–,–
–,3.2,"CC(C)C(C#N)(CCCN1CCN(CCOc2cccc(-c3ccsc3)c2)CC1)c1ccccc1 (centres unmarked) [Example 117, 1-[(4-Cyano-5-methyl-4-phenyl)hexyl]-4-{2-[3-(3-thienyl)phenoxy]ethyl}piperazine]",–,–
–,6.4,"Cc1cccc(/C=C/c2ccccc2OCCN2CCN(CCCC(C#N)(c3ccccc3)C(C)C)CC2)n1 (centres unmarked) [Example 118, 1-[(4-Cyano-5-methyl-4-phenyl)hexyl]-4-{2-[2-(6-methyl-2-pyridyl)vinylphenoxyl]ethyl}piperazine]",–,–
–,7.7,"CC(C)C(C#N)(CCCN1CCN(CCOc2cccc(C#N)c2)CC1)c1ccccc1 (centres unmarked) [Example 119, 1-[(4-Cyano-5-methyl-4-phenyl)hexyl]-4-[2-(3-cyanophenoxy)ethyl]piperazine]",–,–
–,4.1,"CC(C)C(C#N)(CCCN1CCN(CCOc2cccc(-c3ccccc3)c2)CC1)c1ccccc1 (centres unmarked) [Example 120, 1-[(4-Cyano-5-methyl-4-phenyl)hexyl]-4-[2-(3-phenylphenoxy)ethyl]piperazine]",–,–
–,6.8,"CC(C)C(C#N)(CCCN1CCN(CCOc2cccc(/C=C/C#N)c2)CC1)c1ccccc1 (centres unmarked) [Example 121, 1-[(4-Cyano-5-methyl-4-phenyl)hexyl]-4-{2-[3-(2-cyanovinyl)phenoxy]ethyl}piperazine]",–,–
–,12,"CC(C)C(C#N)(CCC(=O)N1CCN(CCOc2ccc(F)cc2)CC1)c1ccccc1 (centres unmarked) [Example 122, 1-[(4-Cyano-5-methyl-4-phenyl)hexanoyl]-4-[2-(4-fluorophenoxy)ethyl]piperazine]",–,–

Compound,IC50 ([2]; Rattus norvegicus) [µM],IC50 [1] [µM],IC50 ([1]; Hydrochloride) [µM],IC50 ([2]; Hydrochloride) [µM]
"CC(C)C(C#N)(CCCN1CCN(CCOc2ccc(F)cc2)CC1)c1ccccc1 (single isomer, unassigned; (-)) [Example 75, hydrochloride]",2.9,–,4.5,–
